System: NCI-H226 xenograft
Experiment: Inhibition of mouse xenograft NCI-H226 tumors
Type: in vivo, BALB/c nude mice
Conditions: Day 27, p.o., QD
Excerpt: This study evaluated the in vivo therapeutic efficacy of TEAD inhibitors in the treatment of the subcutaneous lung cancer NCI-H226 xenograft model in female BALB/c nude mice.
• ANOVA Analysis of variance • BW Body weight • BWL Body weight loss • FFPE Formalin fixed paraffin embedded • IACUC Institutional animal care and use committee • MTV Mean tumor volume • N/A Not available or not applicable • p.o. Oral (ly) • QD Once a day • REG REG=[(T0−Ti)/T0]×100%; • Ti as the mean tumor volume of the treatment group on the measurement day; • T0 as the mean tumor volume of the treatment group on Day 0. • ROA Route of administration • RT Room temperature • RTV Relative tumor volume • SD Standard deviation • SEM Standard error of mean • SOC Standard of care used in clinical setting for a specific disease • TBD To be determined • T/C The Ti/Ci value (%): T/C %=Ti/Ci×100; • Ti and Ci are the mean tumor volumes of the treatment and control groups, respectively, on a given day. • TGI Tumor growth inhibition; TGI %=(1−Ti/Ci)×100; • Ti and Ci are the mean tumor volumes of the treatment and control groups, respectively, on a given day. • TV Tumor volume • PK/PD Pharmacokinetics/Pharmacodynamics • ΔInhibition Mean % ΔInhibition=((Ci−C0)−(Ti−T0))/(Ci−C0)*100% • Ti and Ci are the mean tumor volumes of the treatment and control groups, respectively, on a given day. T0 and C0 as the mean tumor volumes of the treatment and vehicle groups on Day 0.
• Species Mus musculus • Strain Balb/c nude • Supplier GemPharmatech Co., Ltd • Gender Female • No. of Animals Ordered 68 (45 plus 23 spare) • No. of Animals Assigned 45 • to Study • Average Age of Animals 6-8 weeks • at Study Initiation
The NCI-H226 cells (CL-00364) cancer cells were maintained in vitro with RPMI1640 medium supplemented with 10% fetal bovine serum at 37° C. in an atmosphere of 5% CO2 in the air. The cells in exponential growth phase were harvested and quantitated by cell counter before tumor inoculation.
Each mouse was inoculated subcutaneously in the right front flank region with NCI-H226 tumor cells (1×10^7) in 0.2 ml of PBS mixed with Matrigel (1:1) for tumor development.
The randomization was performed when the mean tumor size reached 138.81 mm^3. 45 mice were enrolled in the study. All animals were randomly allocated to 9 study groups, 5 mice in each group. Randomization was performed based on “Matched distribution” method/“Stratified” method (StudyDirector™ software, version 3.1.399.19)/randomized block design. The date of randomization was denoted as day 0.
The treatment was initiated on the same day of randomization (day 0) per study design.
After tumor cells inoculation, the animals were checked daily for morbidity and mortality. During routine monitoring, the animals were checked for any effects of tumor growth and treatments on behavior such as mobility, food and water consumption, body weight gain/loss (Body weights were measured twice per week after randomization), eye/hair matting and any other abnormalities. Mortality and observed clinical signs were recorded for individual animals in detail.
Tumor volumes were measured twice per week after randomization in two dimensions using a caliper, and the volume was expressed in mm^3 using the formula: “V=(L×W×W)/2, where V is tumor volume, L is tumor length (the longest tumor dimension) and W is tumor width (the longest tumor dimension perpendicular to L). Dosing as well as tumor and body weight measurements were conducted in a Laminar Flow Cabinet.
To compare tumor volumes of different groups at a pre-specified day, Bartlett's test was first used to check the assumption of homogeneity of variance across all groups. When the p-value of Bartlett's test was >=0.05, one-way ANOVA was performed to test overall equality of means across all groups. […]

SMILES	T/C (3 mg/kg) [%]	TGI (3 mg/kg) [%]	Tumor Volume (mean ± SEM) (3 mg/kg) [mm^3]	T/C (10 mg/kg) [%]	TGI (10 mg/kg) [%]	Tumor Volume (mean ± SEM) (10 mg/kg) [mm^3]	T/C (25 mg/kg) [%]	TGI (25 mg/kg) [%]	Tumor Volume (mean ± SEM) (25 mg/kg) [mm^3]
O=C(NCc1ncco1)c1cnc2c(C3=CCC(C(F)(F)F)CC3)cccc2c1 (stereo not drawn) [Compound 11, N-(oxazol-2-ylmethyl)-8-(4-(trifluoromethyl)cyclohex-1-en-1-yl)quinoline-3-carboxamide]	89.83	10.17	479.84 ± 96.60	36.49	63.51	194.94 ± 42.44	21.10	78.90	112.73 ± 17.20
C[C@H](NC(=O)c1cnc2c(C3=CCC(C(F)(F)F)CC3)cccc2c1)c1ccccn1 (stereo partly drawn) [Compound 2, N—((S)-1-(pyridin-2-yl)ethyl)-8-(4-(trifluoromethyl)cyclohex-1-en-1-yl)quinoline-3-carboxamide]	64.62	35.38	345.21 ± 85.33	45.64	54.36	243.78 ± 74.70	19.66	80.34	105.03 ± 13.17

Source: patent US20250223306A1, “TEAD INHIBITORS AND METHODS OF USE” (Sporos BioDiscovery, Inc., priority 2022, published 2025)
